From US20030013660A1, “Dioxolane analogs for improved inter-cellular delivery” (Shire BioChem Inc., priority 2000, published 2003)
Like-named read-outs stand apart in the source and are kept apart here.

How the values were obtained:
Assay in all cases: 3H-TdR (3H-thymidine) incorporation assay at 72 hr
[1] = test system: H-460; type: cell-based, Human
[2] = test system: SF-268; type: cell-based, Human
[3] = test system: MCF-7; type: cell-based, Human
[4] = test system: CCRF-CEM; type: cell-based
Experimental: (§1) Table of IC50 Values (μM) for Controls
(§2) Exposition of 24 hr to drug, wash, incubated for another 48 hr (total of 72 hr assay)
(§3) (3H-Thymidine Incorporation Assay)

[5] = test system: CEM/dCK-; type: cell-based; settings: for Factor* (Resistance Factor = Ratio of dCK- on Wild-type CCRF-CEM): ratio of IC50 CEM/dCK- to CCRF-CEM, 24 h
Experimental: as §1, §2, §3

[6] = Homo sapiens, NCI-H460, read-out: IC50 H-460 24 h, 24 h drug exposure, wash, another 48 hr, 3H-TdR incorporation at 72 hr
[7] = Homo sapiens, SF-268, read-out: IC50 SF-268 24 h, 24 h drug exposure, wash, another 48 hr, 3H-TdR incorporation at 72 hr
[8] = Homo sapiens, MCF7, read-out: IC50 MCF-7 24 h, 24 h drug exposure, wash, another 48 hr, 3H-TdR incorporation at 72 hr
[9] = Homo sapiens, CCRF-CEM, read-out: IC50 CCRF-CEM 24 h, 24 h drug exposure, wash, another 48 hr, 3H-TdR incorporation at 72 hr
[10] = Homo sapiens, CCRF-CEM, read-out: IC50 CEM/dCK- 24 h, 24 h drug exposure, wash, another 48 hr, deoxycytidine kinase-deficient CCRF-CEM
[11] = Homo sapiens, NCI-H460, read-out: IC50 H-460 24 h
[12] = Homo sapiens, SF-268, read-out: IC50 SF-268 24 h
[13] = Homo sapiens, MCF7, read-out: IC50 MCF-7 24 h
[14] = Homo sapiens, CCRF-CEM, read-out: IC50 CCRF-CEM 24 h
[15] = Homo sapiens, CCRF-CEM, read-out: IC50 CEM/dCK- 24 h

Structure (SMILES) | IC50 [1, 6] [nM] | IC50 [2, 7] [nM] | IC50 [3, 8] [nM] | IC50 [4, 9] [nM] | IC50 [5, 10] [nM] | Factor* (Resistance Factor = Ratio of dCK- on Wild-type CCRF-CEM) [5] | IC50 [1, 11] [nM] | IC50 [2, 12] [nM] | IC50 [3, 13] [nM] | IC50 [4, 14] [nM] | IC50 [5, 15] [nM] | IC50 ([1]; read-out: IC50 H-460 24 h, 24 h drug exposure, wash, another 48 hr, 3H-TdR incorporation at 72 hr, HYDROCHLORIDE) [nM] | IC50 ([2]; read-out: IC50 SF-268 24 h, 24 h drug exposure, wash, another 48 hr, 3H-TdR incorporation at 72 hr, HYDROCHLORIDE) [nM] | IC50 ([3]; read-out: IC50 MCF-7 24 h, 24 h drug exposure, wash, another 48 hr, 3H-TdR incorporation at 72 hr, HYDROCHLORIDE) [nM] | IC50 ([4]; read-out: IC50 CCRF-CEM 24 h, 24 h drug exposure, wash, another 48 hr, 3H-TdR incorporation at 72 hr, HYDROCHLORIDE) [nM] | IC50 ([5]; read-out: IC50 CEM/dCK- 24 h, 24 h drug exposure, wash, another 48 hr, deoxycytidine kinase-deficient CCRF-CEM, HYDROCHLORIDE) [nM]
O=C(Nc1ccn([C@@H]2CO[C@H](COC(=O)C34CC5CC(CC(C5)C3)C4)O2)c(=O)n1)OCc1ccccc1 [Compound 101, ADAMANTANE-1-CARBOXYLIC ACID 4-(4- BENZYLOXYCARBONYLAMINO- 2-OXO-2H-PYRIMIDIN-1- YL)-[1,3]DIOXOLAN-2- YLMETHYL ESTER] | 330 | 2100 | 410 | 360 | 16000 | 44 | – | – | – | – | – | – | – | – | – | –
O=C(Nc1ccn([C@@H]2CO[C@H](COC(=O)C34CC5CC(CC(C5)C3)C4)O2)c(=O)n1)C12CC3CC(CC(C3)C1)C2 [Compound 102, ADAMANTANE-1-CARBOXYLIC ACID 4-{4-[(ADAMANTANE- 1-CARBONYL)-AMINO]-2- OXO-2H-PYRIMIDIN-1-YL}- [1,3]DIOXOLAN-2- YLMETHYL ESTER] | 190 | 1000 | 1700 | 410 | 11000 | 27 | – | – | – | – | – | – | – | – | – | –
O=C(Nc1ccn([C@@H]2CO[C@H](COC(=O)Oc3ccc(Cl)cc3)O2)c(=O)n1)Oc1ccc(Cl)cc1 [Compound 103] | – | – | – | – | – | 4,545 | 52 | 63 | 18 | 11 | 50000 | – | – | – | – | –
O=C(Nc1ccn([C@@H]2CO[C@H](CO)O2)c(=O)n1)Oc1ccc(Cl)cc1.O=C(O)C(F)(F)F [Compound 104, [1-(2-HYDROXYMETHYL- [1,3]DIOXOLAN-4-YL)-2- OXO-1,2-DIHYDRO- […]-4-YL]- CARBAMIC ACID 4-CHLORO- PHENYL ESTER TRIFLUOROACETATE SALT] | – | – | – | – | – | >476 | 270 | 470 | 470 | 210 | > 100000 | – | – | – | – | –
Nc1ccn([C@@H]2CO[C@H](COC(=O)Oc3ccc(Cl)cc3)O2)c(=O)n1.O=C(O)C(F)(F)F [Compound 105, CARBONIC ACID 4-(4- AMINO-2-OXO-2H- PYRIMIDIN-1-YL)- [1,3]DIOXOLAN-2- YLMETHYL ESTER 4- CHLORO-PHENYL ESTER TRIFLUOROACETATE SALT] | 80 | 71 | 68 | 33 | 79000 | 2393 | – | – | – | – | – | – | – | – | – | –
CC(C(=O)OC[C@H]1OC[C@@H](n2ccc(N)nc2=O)O1)c1ccccc1.Cl (stereo partly drawn) [Compound 106, HYDROCHLORIDE] | – | – | – | – | – | – | – | – | – | – | – | 14 | 95 | 37 | 10 | 46000
O=C(NCc1ccccc1)Nc1ccn([C@@H]2CO[C@H](CO)O2)c(=O)n1 [Compound 108, 1-BENZYL-3-[1-(2- HYDROXYMETHYL- [1,3]DIOXOLAN-4-YL)-2- OXO-1,2-DIHYDRO- PYRIMIDIN-4-YL]-UREA] | 1800 | 3800 | 27000 | 3400 | > 100000 | >29 | – | – | – | – | – | – | – | – | – | –
O=C(NCc1ccccc1)Nc1ccn([C@@H]2CO[C@H](COC(=O)NCc3ccccc3)O2)c(=O)n1 [Compound 109, BENZYL-CARBAMIC ACID 4- [4-(3-BENZYL-UREIDO)-2- OXO-2#H!-PYRIMIDIN-1- YL]-[1,3]DIOXOLAN-2- YLMETHYL ESTER] | 2600 | 4800 | 31000 | 1000 | > 100000 | >100 | – | – | – | – | – | – | – | – | – | –
CC(C)(C)OC(=O)N(CCCCC(=O)OC[C@H]1OC[C@@H](n2ccc(N)nc2=O)O1)Cc1ccccc1 [Compound 111, 5-(BENZYL-TERT- BUTOXYCARBONYL-AMINO)- PENTANOIC ACID 4-(4- AMINO-2-OXO-2H- PYRIMIDIN-1-YL)- [1,3]DIOXOLAN-2- YLMETHYL ESTER] | 0.13 | 2.1 | 0.26 | 0.2 | 2600 | 13000 | – | – | – | – | – | – | – | – | – | –
COc1cc2c(cc1OC)C(=O)/C(=C/c1cc(C)c(OC(=O)OC[C@H]3OC[C@@H](n4ccc(N)nc4=O)O3)c(C)c1)C2 [Compound 112] | – | – | – | – | – | 10 | 11 | 6.7 | 16 | 5.8 | – | – | – | – | – | –
COC1(OC[C@H]2OC[C@@H](n3ccc(N)nc3=O)O2)CCCCC1 [Compound 113, 4-AMINO-1-[2-(1- METHOXY- CYCLOHEXYLOXYMETHYL)- [1,3]DIOXOLAN-4-YL]-1H- PYRIMIDIN-2-ONE] | 240 | 1100 | 480 | 60 | > 100000 | >1667 | – | – | – | – | – | – | – | – | – | –
CC(C)(C)OC(=O)N(CCCCC(=O)Nc1ccn([C@@H]2CO[C@H](COC(=O)CCCCN(Cc3ccccc3)C(=O)OC(C)(C)C)O2)c(=O)n1)Cc1ccccc1 [Compound 114, 5-(BENZYL-TERT- BUTOXYCARBONYL-AMINO)- PENTANOIC ACID 4-{4-[5- (BENZYL-TERT- BUTOXYCARBONYL-AMINO)- PENTANOYLAMINO]-2-OXO- 2H!PYRIMIDIN-1-YL}- [1,3]DIOXOLAN-2- YLMETHYL ESTER] | 66 | 41 | 17 | 16 | 8000 | 500 | – | – | – | – | – | – | – | – | – | –
CC(C)(C)OC(=O)N(CCCCC(=O)Nc1ccn([C@@H]2CO[C@H](CO)O2)c(=O)n1)Cc1ccccc1 [Compound 115, BENZYL-{4-[1-(2- HYDROXYMETHYL- [1,3]DIOXOLAN-4-YL)-2- OXO-1,2-DIHYDRO- PYRIMIDIN-4- YLCARBAMOYL]-BUTYL}- CARBAMIC ACID TERT!- BUTYL ESTER] | 380 | 620 | 150 | 200 | > 100000 | >500 | – | – | – | – | – | – | – | – | – | –
COc1ccc(OC(=O)OC[C@H]2OC[C@@H](n3ccc(NC(=O)OCc4ccccc4)nc3=O)O2)cc1 [Compound 116, CARBONIC ACID 4-(4- BENZYLOXYCARBONYLAMINO- 2-OXO-2H-PYRIMIDIN-1- YL)-[1,3]DIOXOLAN-2- YLMETHYL ESTER 4- METHOXY-PHENYL ESTER] | 1400 | 2500 | 110 | 380 | > 100000 | >263 | – | – | – | – | – | – | – | – | – | –
COc1ccc(OC(=O)OC[C@H]2OC[C@@H](n3ccc(N)nc3=O)O2)cc1 [Compound 118, CARBONIC ACID 4-(4- AMINO-2-OXO-2H- PYRIMIDIN-1-YL)- [1,3]DIOXOLAN-2- YLMETHYL ESTER 4- METHOXY-PHENYL ESTER] | 22 | 160 | 77 | 28 | > 100000 | >3571 | – | – | – | – | – | – | – | – | – | –
CCCCCCNC(=O)Nc1ccn([C@@H]2CO[C@H](COC(=O)NCCCCCC)O2)c(=O)n1 [Compound 119, HEXYL-CARBANIC ACID 4- [4-(3-HEXYL-UREIDO)-2- OXO-2#H!-PYRIMIDIN-1- YL]-[1,3]DIOXOLAN-2- YLMETHYL ESTER] | 17000 | 94000 | 27000 | 56000 | 96000 | ˜2 | – | – | – | – | – | – | – | – | – | –
CCCCCCNC(=O)Nc1ccn([C@@H]2CO[C@H](CO)O2)c(=O)n1 [Compound 120, 1-HEXYL-3-[1-(2- HYDROXYMETHYL- [1,3]DIOXOLAN-4-YL)-2- OXO-1,2-DIHYDRO- PYRIMIDIN-4-YL]-UREA] | > 100000 | > 100000 | 64000 | > 100000 | > 100000 | – | – | – | – | – | – | – | – | – | – | –
CCCCCCNC(=O)OC[C@H]1OC[C@@H](n2ccc(N)nc2=O)O1 [Compound 121, HEXYL-CARBAMIC ACID 4- (4-AMINO-2-OXO-2H- PYRIMIDIN-1-YL)- [1,3]DIOXOLAN-2- YLMETHYL ESTER] | 28000 | > 100000 | 37000 | 17000 | > 100000 | >6 | – | – | – | – | – | – | – | – | – | –
CCCCCCOC(=O)OC[C@H]1OC[C@@H](n2ccc(NC(=O)OCc3ccccc3)nc2=O)O1 [Compound 122, CARBONIC ACID 4-(4- BENZYLOXYCARBONYLAMINO- 2-OXO-2H-PYRIMIDIN-1- YL)-[1,3]DIOXOLAN-2- YLMETHYL ESTER HEXYL ESTER] | 1900 | 570 | 210 | 710 | 61000 | 86 | – | – | – | – | – | – | – | – | – | –
